In brackets after ≈: the same amount, converted by molar mass.
Assay: Olopatadine solubility in water and in formulations
Format: physicochemical
Details: for solubility: Concentration (mg/mL) of solubilized olopatadine

- solubility (formulation with PVP K29/32, SBE-CD, PEG 400 and HPMC, pH 6.96, aqueous with cosolvent or surfactant or cyclodextrin, 4% PVP K29/32, 1.5% SBE-CD, 4% PEG 400, 0.6% HPMC, final pH 6.96): 7460 µg/mL (≈ 22.1 mM)
- solubility (formulation with PVP K29/32, SBE-CD, PEG 400 and HPMC, pH 7.01, aqueous with cosolvent or surfactant or cyclodextrin, 4% PVP K29/32, 2.3% SBE-CD, 4% PEG 400, 0.6% HPMC, final pH 7.01): 8660 µg/mL (≈ 25.7 mM)
- solubility (formulation with PVP K29/32, SBE-CD, PEG 400 and HPMC, pH 7.02, aqueous with cosolvent or surfactant or cyclodextrin, 4% PVP K29/32, 2.2% SBE-CD, 4% PEG 400, 0.6% HPMC, final pH 7.02): 8620 µg/mL (≈ 25.5 mM)
- solubility (formulation with PVP K29/32, SBE-CD, PEG 400 and HPMC, pH 7.04, aqueous with cosolvent or surfactant or cyclodextrin, 4% PVP K29/32, 2.5% SBE-CD, 4% PEG 400, 0.6% HPMC, final pH 7.04): 9040 µg/mL (≈ 26.8 mM)
- solubility (formulation with PVP K29/32, SBE-CD, PEG 400 and HPMC, pH 7.06, aqueous with cosolvent or surfactant or cyclodextrin, 4% PVP K29/32, 2.0% SBE-CD, 4% PEG 400, 0.6% HPMC, final pH 7.06): 8110 µg/mL (≈ 24 mM)
- solubility (pH 6.97, aqueous with cosolvent or surfactant or cyclodextrin, 4% PVP K29/32, 1.5% SBE-CD, 4% PEG 400, no HPMC, final pH 6.97): 6130 µg/mL (≈ 18.2 mM)
- solubility (pH 6.97, aqueous with cosolvent or surfactant or cyclodextrin, 4% PVP K29/32, 2.0% SBE-CD, 4% PEG 400, no HPMC, final pH 6.97): 6740 µg/mL (≈ 20 mM)
- solubility (pH 6.98, aqueous with cosolvent or surfactant or cyclodextrin, 4% PVP K29/32, 2.5% SBE-CD, 4% PEG 400, no HPMC, final pH 6.98): 7340 µg/mL (≈ 21.8 mM)
- solubility (pH 7.01, aqueous with cosolvent or surfactant or cyclodextrin, 4% PVP K29/32, 2.2% SBE-CD, 4% PEG 400, no HPMC, final pH 7.01): 6970 µg/mL (≈ 20.7 mM)
- solubility (pH 7.02, aqueous with cosolvent or surfactant or cyclodextrin, 4% PVP K29/32, 2.3% SBE-CD, 4% PEG 400, no HPMC, final pH 7.02): 7160 µg/mL (≈ 21.2 mM)
- solubility in water (water, pH about 7.0, room temperature, olopatadine by itself): about 0.18 w/v %
SMILES: CN(C)CC/C=C1/c2ccccc2COc2ccc(CC(=O)O)cc21 [Olopatadine]
